What was measured:
[1] = test system: KNRK cells; assay: ATP-stimulated IP1 accumulation in KNRK cells; type: cell-based; conditions: ATP (10 μM)
Procedure: KNRK-hPAR2, KNRK or HT-29 cells were seeded at a density of 50×10^3 cells/well in a clear poly-d-lysine coated 96 well tissue culture plate. Following 24 h incubation at 37° C. and 5% CO2, media was removed and replaced with 80 μl IP1 stimulation buffer (10 mM HEPES, 1 mM CaCl2, 0.5 mM MgCl2, 4.2 mM KCl, 146 mM NaCl, 5.5 mM glucose, 50 mM LiCl). Following stimulation buffer addition, the wells received 10 μl of 10× antagonists or DMSO vehicle. All plates were further incubated at 37° C., 5% CO2 for 30 min. 10 μl of 2F or ATP was added to the plates and further incubated for 40 min. Following incubation, stimulation buffer was quickly removed by aspiration and replaced with 25 μl lysis buffer (IP-One HTRF® assay kit, Cisbio). Following incubation of the lysates at 37° C., 5% CO2 for 10′, 10 μl lysate was transferred to a 384-well OptiPlate (PerkinElmer) and detected using the IP-One HTRF® assay kit (Cisbio).
Compounds of the invention (added at 10×concentrations in a 10 μL volume) were incubated for 30 min prior to the addition of 10 μM ATP or 100 nM or 300 nM PAR2 agonist (2F; EC80, added at 10×concentrations in a 10 μL volume) and then further incubated for 40 min. After lysis, the inositol phosphate 1 was quantified with IP-One HTRF® assay kit, Cisbio. The data was analysed with Prism, GraphPad to calculate the IC50 values, shown below in Table 1. […]

[2] = test system: mouse DRG neurons; assay: Patch clamp rheobase of DRG neurons: IBS-D biopsy supernatant-induced hyperexcitability; type: cell-based; conditions: I-343 10 μM, Dy4 30 μM, PD98059 50 μM
Procedure: An investigation as whether proteases from mucosal biopsies of IBS patients cause a persistent hyperexcitability of nociceptors was conducted by a mechanism that entails endosomal signaling of PAR2. Biopsies of colonic mucosa from patients with diarrhea-predominant IBS (IBS-D) or healthy control (HC) subjects were placed in culture medium (24 h, 37° C.). Mouse DRG neurons were then exposed to biopsy supernatants (30 min, 37° C.) and washed. Rheobase was measured 30 min after washing to assess persistent hyperexcitability. Supernatants of biopsies from IBS-D patients caused a persistent decrease in rheobase, consistent with hyperexcitability, when compared to supernatants from HC subjects (rheobase at 30 min: HC, 78.33±4.41 pA, 12 neurons, supernatant from 4 HC; IBS-D, 54.55±4.74 pA, 11 neurons, supernatant from 4 IBS-D; P<0.05; ANOVA, Tukey's multiple comparisons test) (FIG. 6A, B). I-343 (10 μM), Dy4 (dynamin inhibitor, 30 μM) and PD98059 (MEK1 inhibitor, 50 μM) abolished IBS-D-induced hyperexcitability of nociceptors (FIG. 6A-D).
The Queen's University Human Ethics Committee approved human studies. All subjects gave informed consent. Endoscopic biopsies were obtained from the descending colon of 13 adult IBS-D patients (12 female) diagnosed using ROME III criteria for diarrhea predominant IBS and of 12 health controls. All IBS patients had symptoms greater than 1 year and most were greater than 5 years. Celiac disease was excluded by blood test and patients over 40 years with daily diarrhea were biopsied at the time of colonoscopy to exclude microscopic colitis. […] Biopsies (8 samples per patient) were incubated in 250 μl of RPMI medium containing 10% fetal calf serum, penicillin/streptomycin and gentamicin/amphotericin B (95% O2/5% […], 24 h, 37° C.). Supernatants were stored at −80° C. Supernatants from 4-6 patients were pooled and studied in individual experiments.
DRG innervating the colon (T9-T13) were collected from C57BL/6 mice. Ganglia were digested by incubation in collagenase IV (1 mg/ml, Worthington) and dispase (4 mg/ml, Roche) (10 min, 37° C.). DRG were triturated with a fire-polished Pasteur pipette, and further digested (5 min, 37° C.). Neurons were washed, plated onto laminin- (0.017 mg/ml) and poly-D-lysine- (2 mg/ml) coated glass coverslips, and were maintained in F12 medium containing 10% fetal calf serum, penicillin and streptomycin (95% air, 5% CO2, 16 h, 37° C.) until retrieval for electrophysiological studies.
Small-diameter (<30 pF capacitance) neurons were studied because they display characteristics of nociceptors (Valdez-Morales E. E. et al., Am J Gastroenterol 2013, 108(10): 1634-1643). Changes in excitability were quantified by measuring rheobase. Whole-cell perforated patch-clamp recordings were made using Amphotericin B (240 μg/ml, Sigma Aldrich) in current clamp mode at room temperature. The recording chamber was perfused with external solution at 2 ml/min. Recordings were made using Multiclamp 700B or Axopatch 200B amplifiers, digitized by Digidata 1440A or 1322A, and processed using pClamp 10.1 software (Molecular Devices). Solutions had the composition (mM): pipette—K-gluconate 110, KC130, HEPES 10, MgCl2 1, CaCl2 2; pH 7.25 with 1 M KOH; external—NaCl 140, KCl 5 HEPES 10, glucose 10, MgCl2 1, CaCl2 2; pH to 7.3-7.4 with 3 M NaOH. […] Neurons were also preincubated with trypsin (50 nM, 10 min), NE (390 nM, 30 min), CS (500 nM, 60 min), or vehicle (37° C.), and washed. Rheobase was measured at T 0 or T 30 min after washing. To investigate mechanisms of protease-evoked effects, neurons were incubated with I-343 (100 nM, 300 nM, 10 μM, 30 min preincubation), SCH79797 (1 μM, 10 min), Dy4 (30 μM, 30 min), PS2 (15 μM, 30 min), PD98059 (50 μM, 30 min), GF109203X (10 μM, 30 min), or vehicle (preincubation and inclusion throughout). In experiments using the tripartite antagonist, neurons were preincubated with Compound 10 (30 μM, 60 min, 37° C.) or vehicle and washed. […]

Row | SMILES | ATP-stimulated IP1 [1] | IBS-D-induced hyperexcitability of nociceptors [2] | rheobase of neurons exposed to HC supernatant [2]
1 | Cc1nc(C(=O)N2CCN(C(=O)c3cn4nc(-c5ccc(F)cc5)cc(C(C)(C)C)c4n3)C(C)(C)C2)n[nH]1 [Compound I-343, (8-(tert-butyl)-6-(4-fluorophenyl)imidazo[1,2-b]pyridazin-2-yl)(2,2-dimethyl-4-(5-methyl-1H-1,2,4-triazole-3-carbonyl)piperazin-1-yl)methanone] | did not affect | abolished | no effect
2 | O=C(N/N=C/c1cc(O)c(O)cc1O)c1cc2ccccc2cc1O [Dy4] | – | abolished | non-significant decrease

— patent US20200383985A1, “Inhibitors of Protease Activated Receptor-2” (Endosome Therapeutics, Inc., priority 2017, published 2020)
